Experimental data as given in US6165982A, “Use of sericin as antioxidants and tyrosinase inhibitors” (Seiren Co., Ltd., priority 1996, dated 2000).

Tested on: rat brain homogenate
Test: Inhibitory test of lipid peroxide in rat brain homogenate (TBARS, TBA method)
Type: biochemical
Conditions: for Inhibitory rate on an increase in lipid peroxide: 37° C., 2 hours, TBARS
Description: To 1 g of the rat brain stored under refrigeration was added 9 ml of 0.075M phosphate buffer (pH 7.5) and the mixture was homogenated under ice-cooling (hereinafter referred to as homogenate). To 0.5 ml of the homogenate obtained above was added 3.5 ml each of 0.075M phosphate buffers containing Sericin L and Sericin H (pH 7.5), respectively. Incubation was continued at 37° C. for 2 hours. At the end of this time, the respective final concentrations of sericin were made to 0.02~0.5%. Immediately before the isolation and after the incubation for 2 hours, 0.5 ml each of the samples was recovered and then TBARS (thiobarbituric acid reactive substance), an indicator of lipid peroxide level, was determined according to the TBA (thiobarbituric acid) method. Antioxidizing ability of sericin was calculated from the TBARS amount obtained when no sericin was added and the TBARS amount obtained when sericin was added according to the following equation 1 and expressed in terms of an inhibitory rate on an increase in lipid peroxide by incubation. In all cases of this Test Example and the following Test Examples 2~5, tests were repeated three times and the results were shown with an average value of the numerical values thus obtained. Inhibitory rate (%)=(1-A/B)×100 Equation 1 A: Increased TBARS amount obtained when a lipid peroxide inhibitory agent (an antioxidant) was added B: Increased TBARS amount obtained when no lipid peroxide inhibitory agent (an antioxidant) was added To 0.5 ml of a sample were added 2.5 ml of a 8% trichloroacetic acid solution and 2.0 ml of a 0.67% thiobarbituric acid solution and the resulting mixture was thoroughly mixed and then heated in a boiling water bath for 15 minutes. Thereafter, the mixture was centrifuged at 2000× g for 10 minutes and the supernatant was measured for absorbance at 535 nm to determine a TBARS amount. 1,1,3,3-Tetraethoxypropane was used as a standard. To 0.5 ml of the homogenate obtained above was added 3.5 ml each of 0.075M phosphate buffers (pH 7.5) containing Sericin L, ascorbic acid (vitamin C) and bovine serum albumin, respectively. Incubation was continued at 37° C. for 2 hours. The final concentrations of Sericin L, ascorbic acid and albumin were made to 0.01%~1.0%. After incubation, a TBARS amount was determined according to the TBA method, similarly to Test Example 1 and inhibitory rates on an increase in lipid peroxide were determined, respectively.

O=C1O[C@H]([C@@H](O)CO)C(O)=C1O [Ascorbic acid, ascorbic acid]
Inhibitory rate on an increase in lipid peroxide (final concentration 0.01%): -39% | Inhibitory rate on an increase in lipid peroxide (final concentration 0.05%): 39% | Inhibitory rate on an increase in lipid peroxide (final concentration 0.1%): 87% | Inhibitory rate on an increase in lipid peroxide (final concentration 0.5%): 97% | Inhibitory rate on an increase in lipid peroxide (final concentration 1.0%): 96% | Effect on oxidation at low concentration (in words) (low concentration range of 0.01%): oxidation may be accelerated
